The text below walks through data of patent US10934298B2, “Substituted pyrazolo[1,5-a]pyrimidines for the treatment of medical disorders” (BIAL—BioTech Investments, Inc., priority 2016, dated 2021).

The target of this assay is T1, glucocerebrosidase (Gcase) (Homo sapiens, UniProt P04062).
T1 construct: micellar solution containing 10 nM GCase and 100 nM saposin C
T1 sequence (P04062 40-536): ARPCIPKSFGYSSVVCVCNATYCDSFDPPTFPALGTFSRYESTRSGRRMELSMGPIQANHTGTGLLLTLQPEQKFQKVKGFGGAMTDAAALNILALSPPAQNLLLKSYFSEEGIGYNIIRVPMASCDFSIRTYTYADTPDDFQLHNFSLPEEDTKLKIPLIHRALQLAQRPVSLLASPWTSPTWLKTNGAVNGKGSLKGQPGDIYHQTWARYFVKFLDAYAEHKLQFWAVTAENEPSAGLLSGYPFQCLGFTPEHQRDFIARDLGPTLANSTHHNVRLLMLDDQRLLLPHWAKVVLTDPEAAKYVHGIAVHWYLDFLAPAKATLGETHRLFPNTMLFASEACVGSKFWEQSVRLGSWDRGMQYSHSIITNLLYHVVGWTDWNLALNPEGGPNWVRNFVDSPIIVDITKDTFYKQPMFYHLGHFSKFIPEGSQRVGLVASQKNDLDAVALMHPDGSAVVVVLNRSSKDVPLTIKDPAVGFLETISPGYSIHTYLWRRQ
Nature of the assay: Glucocerebrosidase (Gcase) activation assay with 4-methylumbelliferyl-beta-D-glucopyranoside substrate, saposin C and phosphatidylserine/triton micelles, fluorescence readout. Format: biochemical. The settings on record: for Percent Gcase Activation, 0.1 μM Test Compound: test compound at 0.1 μM; for Percent Gcase Activation, 1 μM Test Compound: test compound at 1.0 μM. Put shortly: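 Test compounds are first screened at 1.0 and 0.1 μM final, then titrated in 8 points (3-fold from 5 μM) against human GCase with saposin C in phosphatidylserine/triton X-100 micelles at pH 4.7. Reactions run 15 min at room temperature, with fluorescence read at 365/440 nm.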

For `Cc1cc(-c2ccc(F)nc2)nc2c(C(=O)NC(C3CC3)C(F)(F)F)cnn12` (stereo not drawn) [III-112], the “Percent Gcase Activation, 0.1 μM Test Compound” value is “*** (greater than 20% Gcase activation)” and the “Percent Gcase Activation, 1 μM Test Compound” value is “+++ (Gcase activation greater than 60%)”.
For `Cc1cc(-c2cccnc2F)nc2c(C(=O)NC(C3CC3)C(F)(F)F)cnn12` (stereo not drawn) [III-113] the same measures were “*** (greater than 20% Gcase activation)” and “+++ (Gcase activation greater than 60%)”.
For `Cc1cc(-c2cccnc2F)nc2c(C(=O)N[C@H](C3CC3)C(F)(F)F)cnn12` [III-114] the same measures were “*** (greater than 20% Gcase activation)” and “+++ (Gcase activation greater than 60%)”.
Consider `Cc1cc(-c2cccnc2F)nc2c(C(=O)N[C@@H](C3CC3)C(F)(F)F)cnn12` [III-115], for which the “Percent Gcase Activation, 0.1 μM Test Compound” value was “*** (greater than 20% Gcase activation)” and the “Percent Gcase Activation, 1 μM Test Compound” value is on record as “+++ (Gcase activation greater than 60%)”.
For `Cc1cc(-c2ccc(Cl)nc2)nc2c(C(=O)NC(C3CC3)C(F)(F)F)cnn12` (stereo not drawn) [III-116] the same measures were “*** (greater than 20% Gcase activation)” and “+++ (Gcase activation greater than 60%)”.
For `Cc1cc(-c2ccc(Cl)nc2)nc2c(C(=O)N[C@H](C3CC3)C(F)(F)F)cnn12` [III-117] the same measures were “*** (greater than 20% Gcase activation)” and “+++ (Gcase activation greater than 60%)”.
On the same counts, the results for `Cc1cc(-c2cncc(Cl)c2)nc2c(C(=O)NC(C3CC3)C(F)(F)F)cnn12` (stereo not drawn) [III-119] are “*** (greater than 20% Gcase activation)” and “+++ (Gcase activation greater than 60%)”.
Take `Cc1cc(-c2cncc(Cl)c2)nc2c(C(=O)N[C@H](C3CC3)C(F)(F)F)cnn12` [III-120]: the “Percent Gcase Activation, 0.1 μM Test Compound” value is “*** (greater than 20% Gcase activation)” and the “Percent Gcase Activation, 1 μM Test Compound” value was “+++ (Gcase activation greater than 60%)”.
For `Cc1cc(-c2cncc(Cl)c2)nc2c(C(=O)N[C@@H](C3CC3)C(F)(F)F)cnn12` [III-121] the same measures were “*** (greater than 20% Gcase activation)” and “+++ (Gcase activation greater than 60%)”.
On the same counts, the results for `Cc1cc(-c2cnccc2Cl)nc2c(C(=O)NC(C3CC3)C(F)(F)F)cnn12` (stereo not drawn) [III-122] are “*** (greater than 20% Gcase activation)” and “+++ (Gcase activation greater than 60%)”.
For `Cc1cc(-c2cccnc2Cl)nc2c(C(=O)NC(C3CC3)C(F)(F)F)cnn12` (stereo not drawn) [III-123] the same measures were “** (Gcase activation in the range of 10% up to 20%)” and “+++ (Gcase activation greater than 60%)”.
As for `Cc1cc(-c2cnccc2F)nc2c(C(=O)NC(C3CC3)C(F)(F)F)cnn12` (stereo not drawn) [III-124], the “Percent Gcase Activation, 0.1 μM Test Compound” value was “*** (greater than 20% Gcase activation)” and the “Percent Gcase Activation, 1 μM Test Compound” value was “+++ (Gcase activation greater than 60%)”.
For `Cc1cc(-c2cncc(F)c2)nc2c(C(=O)NC(C3CC3)C(F)(F)F)cnn12` (stereo not drawn) [III-125] the same measures were “*** (greater than 20% Gcase activation)” and “+++ (Gcase activation greater than 60%)”.
For the compound `Cc1cc(-c2cncc(F)c2)nc2c(C(=O)N[C@H](C3CC3)C(F)(F)F)cnn12` [III-126], the “Percent Gcase Activation, 0.1 μM Test Compound” value is recorded as “*** (greater than 20% Gcase activation)” and the “Percent Gcase Activation, 1 μM Test Compound” value is reported as “+++ (Gcase activation greater than 60%)”.
For `Cc1cc(-c2cncc(F)c2)nc2c(C(=O)N[C@@H](C3CC3)C(F)(F)F)cnn12` [III-127] the same measures were “*** (greater than 20% Gcase activation)” and “+++ (Gcase activation greater than 60%)”.
For `Cc1cc(-c2cc(F)cc(C#N)c2)nc2c(C(=O)N[C@@H](C)C3CC3)cnn12` [III-128], the “Percent Gcase Activation, 0.1 μM Test Compound” value is given as “*** (greater than 20% Gcase activation)” and the “Percent Gcase Activation, 1 μM Test Compound” value is “+++ (Gcase activation greater than 60%)”.
For the compound `COc1cc(C#N)cc(-c2cc(C)n3ncc(C(=O)N[C@@H](C)C4CC4)c3n2)c1` [III-129], the “Percent Gcase Activation, 0.1 μM Test Compound” value was “*** (greater than 20% Gcase activation)” and the “Percent Gcase Activation, 1 μM Test Compound” value is on record as “+++ (Gcase activation greater than 60%)”.
For `Cc1cc(-c2cccc(Cl)n2)nc2c(C(=O)N[C@@H](C)C3CC3)cnn12` [III-131] the same measures were “*** (greater than 20% Gcase activation)” and “+++ (Gcase activation greater than 60%)”.
For `Cc1cc(-c2cccc(Cl)n2)nc2c(C(=O)N[C@H](C)C3CC3)cnn12` [III-132] the same measures were “** (Gcase activation in the range of 10% up to 20%)” and “+++ (Gcase activation greater than 60%)”.
On the same counts, the results for `Cc1cc(-c2cccc(C#N)n2)nc2c(C(=O)NC(C3CC3)C(F)(F)F)cnn12` (stereo not drawn) [III-133] are “** (Gcase activation in the range of 10% up to 20%)” and “+++ (Gcase activation greater than 60%)”.
As to `Cc1cc(-c2cccc(F)n2)nc2c(C(=O)N[C@@H](C)C3CC3)cnn12` [III-134], the “Percent Gcase Activation, 0.1 μM Test Compound” value is given as “** (Gcase activation in the range of 10% up to 20%)” and the “Percent Gcase Activation, 1 μM Test Compound” value is “+++ (Gcase activation greater than 60%)”.
For `Cc1cc(-c2cccc(F)n2)nc2c(C(=O)N[C@H](C)C3CC3)cnn12` [III-135] the same measures were “** (Gcase activation in the range of 10% up to 20%)” and “+++ (Gcase activation greater than 60%)”.
On the same counts, the results for `Cc1cc(-c2ccccc2)nc2c(C(=O)N[C@@H](C)C3CC3)cnn12` [III-136] are “*** (greater than 20% Gcase activation)” and “+++ (Gcase activation greater than 60%)”.
On the same counts, the results for `COc1cc(F)cc(-c2cc(C)n3ncc(C(=O)N[C@@H](C)C4CC4)c3n2)c1` [III-137] are “*** (greater than 20% Gcase activation)” and “+++ (Gcase activation greater than 60%)”.
In the case of `COc1c(F)cccc1-c1cc(C)n2ncc(C(=O)N[C@@H](C)C3CC3)c2n1` [III-138], the “Percent Gcase Activation, 0.1 μM Test Compound” value was “** (Gcase activation in the range of 10% up to 20%)” and the “Percent Gcase Activation, 1 μM Test Compound” value is recorded as “+++ (Gcase activation greater than 60%)”.
On the same counts, the results for `COc1c(F)cccc1-c1cc(C)n2ncc(C(=O)NC(C3CC3)C(F)(F)F)c2n1` (stereo not drawn) [III-139] are “** (Gcase activation in the range of 10% up to 20%)” and “+++ (Gcase activation greater than 60%)”.
For `COc1c(F)cccc1-c1cc(C)n2ncc(C(=O)NC(C)C(F)(F)F)c2n1` (stereo not drawn) [III-140] the same measures were “** (Gcase activation in the range of 10% up to 20%)” and “+++ (Gcase activation greater than 60%)”.
